Source: patent publication US9839594B2, “Skin-moisturising or wrinkle-improving external composition and cosmetic composition” (KOREA INSTITUTE OF ORIENTAL MEDICINE, priority 2012, dated 2017)

Legend:
Format in all cases: in vivo, hairless mice (male HR-1)
skins of hairless mice = assay: Skin wrinkle measurement with silicone skin replica of back skin of UV-irradiated hairless mice; conditions: 12 weeks
Description: (§1) 7-week old male hairless mice (male HR-1, hairless mice, Japan SLC, Inc.), the experimental animals, were purchased from Central Lab. Animal Inc (Seoul, Korea). and used after an adaption period of a week. Only healthy animals were used in the experiments by observing general conditions during the adaption period. The breeding environment was maintained at 23±3° C. with 50±5% humidity with a light-dark cycle of 12 hours (7:00-19:00/lighting time). During the experiments, seven experimental animals per each experimental group were raised in a polycarbonate cage (200×320×145 mm, Three-shine Co., Daejeon, Korea), and the animals were given both mouse feed 5L79 (Charles river, USA) and tap water for drinking sterilized with UV rays to be consumed freely.
The experiments were carried out on the following groups: a control group (Con), a UV-treated group (UV), an excipient-treated group (Vehicle), and a group treated by the compound represented by Formula 1 (TM), and the samples were administered thereto. The sample administration was performed for 12 weeks in total by spreading the samples onto skins. […]
(§2) Ultraviolet irradiation was performed on the experimental groups except for the control group using a UVB lamp (Mineralight UV Display lamp, UVP, USA) three times a week for 8 weeks. […] The UV irradiance was measured by a radiometry instrument (Delta OHM, Italy), and then, was adjusted according to irradiation time.
The degree of wrinkle formation was measured with a silicone skin replica of the back skins of the hairless mice of each experimental group. […] A shadow image, generated according to the thickness of the skin replica, was filed using a CCD camera, and the depth and length of wrinkles were measured using the Skin Visiometer VL 650 software, which is a computer image analysis system. […]

[1] = tested on: back skins of hairless mice; assay: Transepidermal water loss (TEWL) analysis; conditions: 0.25% (w/v) topical, 12 weeks; UVB irradiation; Tewameter at 23° C., relative humidity 50%; p<0.01
Description: 7-week old male hairless mice (male HR-1, hairless mice, Japan SLC, Inc.), the experimental animals, were purchased from Central Lab. Animal Inc (Seoul, Korea). and used after an adaption period of a week. Only healthy animals were used in the experiments by observing general conditions during the adaption period. The breeding environment was maintained at 23±3° C. with 50±5% humidity with a light-dark cycle of 12 hours (7:00-19:00/lighting time). […]
as §2
To confirm the skin-moisturizing effect, the transepidermal water loss analysis was carried out with back skins of hairless mice in each experimental group. The transepidermal water loss level refers to the water quantity diffused from a skin, and if the level is high, it would mean that the skin moisturizing function is weakened, and that the function of innate skin barrier is damaged. […] The evaporated water quantity was then measured using Tewameter, and the skin moisturizing-ability was calculated.

[2] = tested on: back skin tissues of hairless mice; assay: Histological observation of skin (H&E and Masson's trichome staining); conditions: 0.25% (w/v) topical, 12 weeks, UVB irradiation
Description: as §1
The experiments were carried out on the following groups: a control group (Con), a UV-treated group (UV), an excipient-treated group (Vehicle), and a group treated by the compound represented by Formula 1 (TM), and the samples were administered thereto. The sample administration was performed for 12 weeks in total by spreading the samples onto skins. For the compound treated group (TM), the compound was dissolved in dimethyl sulfoxide (DMSO), and subsequently in a mixed solution containing propylene glycol, ethanol, and poly ethylene glycol with a 1:1:1 ratio, and the dissolved formulation (the final concentration of the compound was 0.25% (w/v)) was applied to skins with the amount of 40 uL per 6 cm^2 once a day for 5 days a week. The excipient-treated group (Vehicle) were treated in the same manner as the compound treated group (TM), except the compound omitted.
as §2, with “time. […]” for “time.”

[3] = tested on: back skin tissues of hairless mice; assay: Epidermis thickness measured in H&E-stained tissues; conditions: 0.25% (w/v) topical, 12 weeks; UVB irradiation; p<0.05
Description: as §1, with “freely. […]” for “freely.”
as §2, with “time. […]” for “time.”
The epidermis thickness was measured from the keratin layer to the epidermal basement membrane of tissues, which were stained with H&E in Experimental Example 3), by a ruler installed in a microscope, and the result is shown in FIG. 6.

[4] = compared to UV-treated group and excipient-treated group

For `C[C@H]1CCC2(OC1)OC1CC3C4CC[C@@H]5CC(OC6OC(CO)C(O)C(O)C6OC6OC(CO)C(O)C(O)C6O)CC[C@]5(C)C4CC[C@]3(C)C1[C@@H]2C` (some centres unmarked) [compound represented by Formula 1], the “degree of skin-wrinkle formation (skin replica image, FIG. 1)” value (skins of hairless mice; 0.25% (w/v) spread onto skin, 40 uL per 6 cm^2 once a day 5 days a week, UVB irradiation 8 weeks, compared to UV-treated group) was “thick wrinkles were alleviated”, the “mean wrinkle length (FIG. 2)” value (skins of hairless mice; 0.25% (w/v) topical, UVB irradiation, compared to UV group and excipient-treated group (Vehicle), p<0.0001) was “significantly reduced” and the “mean wrinkle depth (FIG. 3)” value (skins of hairless mice; 0.25% (w/v) topical, UVB irradiation, compared to UV-treated group, p<0.0001) was “significantly reduced”. The “skin water loss induced by UV rays (transepidermal water loss, FIG. 7)” value [1] was “significantly prevented”, the “collagen fibers (Masson's trichome staining, FIG. 5)” value ([2]; compared to UV-treated group) was “collagen fibers were increased” and the “cornified layers (H&E staining, FIG. 4)” value [2, 4] was “cornified layers were alleviated”. The “epidermis (H&E staining, observed, FIG. 4)” value [2, 4] was “thinner epidermises were observed” and the “epidermis thickness (keratin layer to epidermal basement membrane, FIG. 6)” value [3] was “significantly reduced”.
